Measurements from EPA's ToxValDB 9.5 (doi:10.2903/j.efsa.2008.126r).
Values after ≈ are worked out from the molar mass of the structure shown.

Legend:
Daphnia magna = settings: chronic/long-term; duration: 21 days; reproduction
Apis mellifera = settings: acute; duration: 48 hours; dermal; mortality
Anas platyrhynchos = settings: for LD50: oral, mortality
Canidae = settings: subchronic; duration: 90 days; oral; Dog Other; histopathology: nonneoplastic
Colinus virginianus = settings: for LD50: acute, oral, mortality

Structure (SMILES): CC(C)Oc1cccc(NC(=O)c2ccccc2C(F)(F)F)c1 [Flutolanil]
- LC50 (Tagia sp.; acute, duration: 14 days, mortality): > 1000 mg/kg
- NOEC (Tagia sp.; chronic/long-term, duration: 56 days): 12.9 mg/kg
- NOEC (Daphnia magna): 0.53 mg/L
- LC50 (Pimephales promelas; acute, duration: 96 hours, mortality): 4.8 µg/mL (≈ 14.8 µM)
- NOEC (Pimephales promelas; chronic/long-term, duration: 30 days, growth): 0.233 mg/L
- LD50 (Apis mellifera): > 200 µg/piece
- LD50 (Anas platyrhynchos; acute, unspecified): > 2000 mg/kg-day
- NOEL (Anas platyrhynchos; reproductive): 267 mg/kg-day
- LD50 (Anas platyrhynchos; short-term, feed): 1250 mg/kg-day
- NOAEL (Canidae): 80 mg/kg-day
- LD50 (Rattus norvegicus; acute, oral, mortality): > 10000 mg/kg-day
- NOAEL (Rattus norvegicus; chronic, duration: 2 years, F, hematological): 8.7 mg/kg-day
- NOAEL (Rattus norvegicus; chronic, duration: 2 years, M, histopathology: nonneoplastic): 8.7 mg/kg-day
- NOAEL (Rattus norvegicus; reproduction developmental, organ weight): 157 mg/kg-day
- LD50 (Colinus virginianus; diet): > 961 mg/kg-day
- LD50 (Colinus virginianus): > 2000 mg/kg-day
- NOEL (Colinus virginianus; reproduction developmental): 247 mg/kg-day
